According to US20040101571A1, “Use of hydrogen peroxide for the treatment of warts” (priority 2002, published 2004):

Tested on: warts (human papillomavirus-induced tumors)
Test: Topical treatment of warts in human patients (clinical case examples)
Assay type: in vivo
Description: The method of the present invention neither destroys healthy, uninfected tissue nor results in any local or systemic side effects, scarring, disfigurement or discomfort to the human treated. Furthermore, the use of the present method results in the destruction of latent viral DNA found in the tumor and the surrounding tissues so that instances of incomplete resolution and are prevented. […] In accordance with the method according to this invention, “regular use of the hydrogen peroxide” is meant to mean application of the hydrogen peroxide at least once a day to the body surface containing the wart(s). A further embodiment of the method of this invention comprises placing a small amount of gel residue or gel on the tumor to be treated. It has been determined through clinical evaluation that once the method of this invention is initiated, the warts begin to shrink, no matter what size, and will totally disappear after a period of four to six weeks of treatment, or less if the gel is applied more often than once daily at bedtime.
A person presented with warts on the right foot of some two months duration; measuring about 3 mm in diameter, with raised dark spots on the surface. Hydrogen peroxide gel was applied once daily at bedtime over the wart with a Q-tip and left open to air dry. […]

**Q.** Which “period of treatment until warts totally disappear” value (clinical evaluation, applied once daily at bedtime, warts of any size begin to shrink, less if applied more often) does the source give for `OO` [hydrogen peroxide] here?
**A.** four to six

**Q.** And the “overall clinical experience in treatment and elimination of warts” value (clinical experience to date)?
**A.** complete eradication of the warts with no recurrence
